{
  "source": "patent US4084006A",
  "about": "“Method of using dialkylphenols an antiviral agents” (priority 1977, dated 1978); for Dead animals: tested at 0.001 ppm; for Ill animals: tested at 0.001 ppm; for Well animals: tested at 0.001 ppm; for new born rats, all appeared healthy: tested at 0.001 ppm; for total number of rats in colony: tested at 0.001 ppm",
  "key": {"[1]": {"tested_on": "Herpes simplex virus (HF strain)", "assay": "Inhibition of cytopathic activity (CPE) of herpes virus in HEL tissue culture", "assay_type": "cell-based", "conditions": "for CPE with 100 TCID50 doses of Herpes virus: HEL cells", "description": "The anti-viral activity of 2,4-dimethylphenol was studied in the following manner. Tissue cultures derived from human embryonic lung (HEL) were grown and maintained as monolayers in 32 ounce prescription bottles using growth medium consisting of 85% synthetic mixture No. 199 plus 15% unfiltered fetal bovine serum (FBS) adjusted to pH 7.4. Tube cultures of HEL cells were prepared in similar fashion and used in assays for anti-viral activity. During chemotherapy tests, the maintenance medium consisted of synthetic mixture No. 199 with 7.5% FBS. The virus spectrum in tissue culture consisted of two DNA viruses, a San Carlos virus isolated by Davis [see Science 133, 2059, 1961] and later identified as an adenovirus, and the HF strain of herpes simplex virus. In addition, a RNA virus represented by measles was included in the examples.\nIn performing the initial assays, the tissue cultures were treated prophylactically and the virus was treated in vitro with decreasing 2,4-dimethylphenol concentrations ranging from […] (2 × 10^-6) to 2 attograms (ag) (2 × 10^-18) per ml. The procedure consisted of pretreating tube cultures of HEL cells for two to three days with growth medium containing varying concentrations of 2,4-dimethylphenol. After the prophylactic treatment, the test fluids were removed and replaced with fresh maintenance medium. At this time, 200 TCID50 doses of virus were mixed in vitro with the same decreasing concentrations of the distillate used to pretreat the cells, then the mixture was inoculated into replicate culture of HEL cells so that the final incolum consisted of 100 TCID50 doses of virus in tubes with 2,4-dimethylphenol at the same level used to prophylactically treat the cells.\nThe same number of infected control tubes were handled in the same way except that 2,4-dimethylphenol was omitted from all media. Culture tubes were rotated at 37° C. and examined daily for a period of 7 days for cytopathic activity (CPE). […] By the same token, the CPE of herpes virus was inhibited by both the 10^-12 and 10^-15 level, possibly indicating two active components. […]"}, "[2]": {"tested_on": "chronic respiratory disease (CRD)", "assay": "Treatment of chronic respiratory disease (CRD) in spontaneously hypertensive (SH) rats; for Dead animals: tested at 0.001 ppm; for Ill animals: tested at 0.001 ppm; for Total number of rats: tested at 0.001 ppm; for Well animals: tested at 0.001 ppm; for animals showing a trace of secretions around their necks: tested at 0.001 ppm; for rats alive in the treated group: tested at 0.001 ppm", "assay_type": "in vivo, rat (SH)", "description": "Treatment of Chronic Respiratory Disease (CRD) in laboratory rats: chronic respiratory disease symptoms include coughing and wheezing accompanied by nasal secretions.\n(§1) One-half of a colony of spontaneously hypertensive (SH) rats was treated with 2,4-dimethylphenol in their drinking water at a concentration of one part per billion. The other half of this colony was given only tap water, and both groups observed for 76 days. The second experiment was with a highly inbred strain (GM) of rats that were about to expire, because of chronic respiratory infection. […] Both groups, the SH rats and the GM rats, were not breeding because of their infections and were in seriously poor health.\nThey were only 42 SH rats left in the colony. They were divided into two groups of 21 rats each. Approximately one-half the sick rats were selected for each group. […] This was best observed as a brown secretion from the nose and wiped around the neck by the rat's front paws. The experimental group was treated continuously with one part per billion (1 PPB) of 2,4-dimethylphenol in their drinking fluid. Certain of these rats were so ill that they were near death when the experiment was started and they died in spite of treatment."}, "[3]": {"tested_on": "chronic respiratory disease (CRD)", "assay": "Treatment of chronic respiratory disease in inbred GM rats", "assay_type": "in vivo, rat (GM)", "description": "as §1\nThe second experiment was run concurrently with Example 36, but this time the animals were the highly inbred GM strain. A number of these animals were ill with chronic respiratory disease and unable to breed. These rats were randomly divided into two groups of 26 each. The experimental group received 1 PPB of the 2,4-dimethylphenol in their drinking water and the control group received only tap water."}, "[4]": {"conditions": "day 14, 1 PPB in drinking water, SH rats"}, "[5]": {"conditions": "day 22, 1 PPB in drinking water, SH rats"}, "[6]": {"conditions": "day 29, 1 PPB in drinking water, SH rats"}, "[7]": {"conditions": "day 36, 1 PPB in drinking water, SH rats"}, "[8]": {"conditions": "day 43, 1 PPB in drinking water, SH rats"}, "[9]": {"conditions": "day 58, 1 PPB in drinking water, GM rats"}, "[10]": {"conditions": "day 66, 1 PPB in drinking water, GM rats"}, "[11]": {"conditions": "day 73, 1 PPB in drinking water, GM rats"}, "[12]": {"conditions": "day 80, 1 PPB in drinking water, GM rats"}, "[13]": {"conditions": "over 2.5 years, 1 PPB in drinking fluid, combined GM groups"}},
  "data": [
    {"smiles": "Cc1ccc(O)c(C)c1", "note": "[2,4-dimethylphenol]", "values": [
      {"measurement": "CPE with 100 TCID50 doses of Herpes virus", "setting": "[1]; 10^-6 grams 2X", "value": "3+ (75% of cells infected with selected virus)"},
      {"measurement": "CPE with 100 TCID50 doses of Herpes virus", "setting": "[1]; 10^-7 grams 2X", "value": "3+ (75% of cells infected with selected virus)"},
      {"measurement": "CPE with 100 TCID50 doses of Herpes virus", "setting": "[1]; 10^-8 grams 2X", "value": "2+ (50% of cells infected with selected virus)"},
      {"measurement": "CPE with 100 TCID50 doses of Herpes virus", "setting": "[1]; 10^-9 grams 2X", "value": "2+ (50% of cells infected with selected virus)"},
      {"measurement": "CPE with 100 TCID50 doses of Herpes virus", "setting": "[1]; 10^-10 grams 2X", "value": "2+ (50% of cells infected with selected virus)"},
      {"measurement": "CPE with 100 TCID50 doses of Herpes virus", "setting": "[1]; 10^-11 grams 2X", "value": "2+ (50% of cells infected with selected virus)"},
      {"measurement": "CPE with 100 TCID50 doses of Herpes virus", "setting": "[1]; 10^-12 grams 2X", "value": "1+ (25% of cells infected with selected virus)"},
      {"measurement": "CPE with 100 TCID50 doses of Herpes virus", "setting": "[1]; 10^-13 grams 2X", "value": "2+ (50% of cells infected with selected virus)"},
      {"measurement": "CPE with 100 TCID50 doses of Herpes virus", "setting": "[1]; 10^-14 grams 2X", "value": "3+ (75% of cells infected with selected virus)"},
      {"measurement": "CPE with 100 TCID50 doses of Herpes virus", "setting": "[1]; 10^-15 grams 2X", "value": "1+ (25% of cells infected with selected virus)"},
      {"measurement": "CPE with 100 TCID50 doses of Herpes virus", "setting": "[1]; 10^-16 grams 2X", "value": "4+ (100% of cells infected with selected virus)"},
      {"measurement": "CPE with 100 TCID50 doses of Herpes virus", "setting": "[1]; 10^-17 grams 2X", "value": "4+ (100% of cells infected with selected virus)"},
      {"measurement": "CPE with 100 TCID50 doses of Herpes virus", "setting": "[1]; 10^-18 grams 2X", "value": "2+ (50% of cells infected with selected virus)"},
      {"measurement": "CPE of herpes virus", "setting": "[1]; both the 10^-12 and 10^-15 level", "value": "inhibited"},
      {"measurement": "Dead animals", "setting": "[2]; [4]", "value": 1},
      {"measurement": "Ill animals", "setting": "[2]; [4]", "value": 8},
      {"measurement": "Well animals", "setting": "[2]; [4]", "value": 12},
      {"measurement": "Total number of rats", "setting": "[2]; day 14, 1 PPB in drinking water, SH rats, 21 at start", "value": 21},
      {"measurement": "Dead animals", "setting": "[2]; [5]", "value": 1},
      {"measurement": "Ill animals", "setting": "[2]; [5]", "value": 7},
      {"measurement": "Well animals", "setting": "[2]; [5]", "value": 12},
      {"measurement": "Total number of rats", "setting": "[2]; day 22, 1 PPB in drinking water, SH rats, 21 at start", "value": 20},
      {"measurement": "Dead animals", "setting": "[2]; [6]", "value": 2},
      {"measurement": "Ill animals", "setting": "[2]; [6]", "value": 4},
      {"measurement": "Well animals", "setting": "[2]; [6]", "value": 13},
      {"measurement": "Total number of rats", "setting": "[2]; day 29, 1 PPB in drinking water, SH rats, 21 at start", "value": 19},
      {"measurement": "Ill animals", "setting": "[2]; [7]", "value": 5},
      {"measurement": "Well animals", "setting": "[2]; [7]", "value": 12},
      {"measurement": "Total number of rats", "setting": "[2]; day 36, 1 PPB in drinking water, SH rats, 21 at start", "value": 17},
      {"measurement": "Ill animals", "setting": "[2]; [8]", "value": 5},
      {"measurement": "Well animals", "setting": "[2]; [8]", "value": 12},
      {"measurement": "Total number of rats", "setting": "[2]; day 43, 1 PPB in drinking water, SH rats, 21 at start", "value": 17},
      {"measurement": "Well animals", "setting": "[2]; day 76, 1 PPB in drinking water, SH rats", "value": 12},
      {"measurement": "Total number of rats", "setting": "[2]; day 76, 1 PPB in drinking water, SH rats, 21 at start", "value": 17},
      {"measurement": "Ill animals", "setting": "[2]; day 76, 1 PPB in drinking water, SH rats, minimal infection", "value": 5},
      {"measurement": "infection in the five ill rats", "setting": "[2]; day 76, visual observation, 1 PPB, SH rats", "value": "minimal infection from visual observation"},
      {"measurement": "rats alive in the treated group", "setting": "[2]; end of 76 days, 1 PPB in drinking water, SH rats, 21 at start", "value": 17},
      {"measurement": "animals showing a trace of secretions around their necks", "setting": "[2]; end of 76 days, of 17 rats alive, 1 PPB, SH rats", "value": 5},
      {"measurement": "breeding and colony health", "setting": "[2]; more than 2 years, 1 PPB in drinking fluid, combined SH groups", "value": "These animals began to breed, and the colony is now healthy"},
      {"measurement": "new born rats, all appeared healthy", "setting": "[3]; by day 150, 1 PPB in drinking water, GM rats", "value": 31},
      {"measurement": "breeding of experimental group", "setting": "[3]; by day 150, 1 PPB, GM rats, control group did not start breeding", "value": "began to breed"},
      {"measurement": "Ill animals", "setting": "[3]; [9]", "value": 3},
      {"measurement": "Well animals", "setting": "[3]; [9]", "value": 23},
      {"measurement": "Total number of rats", "setting": "[3]; day 58, 1 PPB in drinking water, GM rats, 26 at start", "value": 26},
      {"measurement": "Ill animals", "setting": "[3]; [10]", "value": 3},
      {"measurement": "Well animals", "setting": "[3]; [10]", "value": 23},
      {"measurement": "Total number of rats", "setting": "[3]; day 66, 1 PPB in drinking water, GM rats, 26 at start", "value": 26},
      {"measurement": "Ill animals", "setting": "[3]; [11]", "value": 2},
      {"measurement": "Well animals", "setting": "[3]; [11]", "value": 24},
      {"measurement": "Total number of rats", "setting": "[3]; day 73, 1 PPB in drinking water, GM rats, 26 at start", "value": 26},
      {"measurement": "Dead animals", "setting": "[3]; [12]", "value": 1},
      {"measurement": "Ill animals", "setting": "[3]; [12]", "value": 0},
      {"measurement": "Well animals", "setting": "[3]; [12]", "value": 25},
      {"measurement": "Total number of rats", "setting": "[3]; day 80, 1 PPB in drinking water, GM rats, 26 at start", "value": 25},
      {"measurement": "Well animals", "setting": "[3]; day 150, 1 PPB in drinking water, GM rats", "value": 53},
      {"measurement": "Total number of rats", "setting": "[3]; day 150, 1 PPB in drinking water, GM rats, includes 31 new born", "value": 56},
      {"measurement": "Ill animals", "setting": "[3]; day 150, 1 PPB in drinking water, GM rats, only a trace of secretion", "value": 3},
      {"measurement": "symptoms of the three rats listed as ill", "setting": "[3]; day 150, 1 PPB, GM rats", "value": "only a trace of secretion"},
      {"measurement": "state of colony", "setting": "[3]; [13]", "value": "the colony has continued to thrive"},
      {"measurement": "total number of rats in colony", "setting": "[3]; [13]", "value": "about 400"}
    ]}
  ]
}
